# Assay results: patent publication US20020182749A1, “Sample evaporative control” (ACLARA BioSciences, Inc., priority 1999, published 2002)
# Where two headings read alike, the source gives them in different places.
# Legend:
# [1] = tested on: alkaline phosphatase; test: alkaline phosphatase inhibition in device ports, fluorescein diphosphate substrate; assay type: biochemical; conditions: 30 nl 0.1 nM enzyme
# Source text: The upper plate is about 1 mm in height and the lower plate is also about 1 mm in height. The port for introducing solutions is 1 mm in diameter and about 900 to 950 μm in height, while the channel substantially extends the remaining length of the upper sheet. The channel was varied from about 0.2 mm to 3.0 mm in width, where the interface between the port or well and the channel varied, with either the port or the channel determining the area of interface. The reservoirs have a diameter of about 2 mm. The channels were treated with 2N sodium hydroxide for 5 mins. using a vacuum pump to ensure that the basic solution extends through the channels and reservoirs. The ports or wells appear to be unaffected by this treatment, so that the channels and reservoirs have a hydrophilic surface, while the ports have a hydrophobic surface. One or more of the ports are used in each of the studies. Common to each of the experiments is to fill the device with 10 μl of 25 μM fluorescein diphosphate in 50 mM Tris buffer (pH 10.0) added to each of the inlet reservoirs, after prewetting the device.
# In the next study, the effect of enzyme inhibitor was investigated. The channel was 1 mm in width. […] The fluorescence development is monitored with a CCD camera. Fluorescence is substantially confined to the ports and the fluorescent signal is related to the concentration of inhibitor introduced into the port.
# [2] = target: CYP1A2 (Homo sapiens, UniProt P05177); test: in vitro
# Chain of CYP1A2 (P05177 whole entry): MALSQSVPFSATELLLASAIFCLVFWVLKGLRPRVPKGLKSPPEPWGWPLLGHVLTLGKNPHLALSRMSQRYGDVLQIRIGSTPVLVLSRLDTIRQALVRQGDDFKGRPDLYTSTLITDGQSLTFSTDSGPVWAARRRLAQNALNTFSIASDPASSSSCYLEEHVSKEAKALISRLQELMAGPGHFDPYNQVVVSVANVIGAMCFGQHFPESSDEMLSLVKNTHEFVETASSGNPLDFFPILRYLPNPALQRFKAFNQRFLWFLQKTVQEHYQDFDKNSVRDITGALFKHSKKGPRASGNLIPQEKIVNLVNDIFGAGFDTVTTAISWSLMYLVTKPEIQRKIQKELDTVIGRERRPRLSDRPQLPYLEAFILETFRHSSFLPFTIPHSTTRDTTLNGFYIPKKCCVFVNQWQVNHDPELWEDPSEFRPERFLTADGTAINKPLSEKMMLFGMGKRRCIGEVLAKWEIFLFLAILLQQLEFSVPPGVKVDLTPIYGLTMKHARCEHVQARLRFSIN
# Description: B: Inhibition in CYP450 1A2 Assay:
# Make 500 M CEC substrate for 1A2.
# For each of the dilutions of furafylline make Buffer Mix:
# Add 5 μl of the buffer mix to both of the side wells of the channels. Because the solution contains Pluronic F68, the solution in the middle assay well rises to the top. Dilute CYP1A2 enzyme 2:1 with water.
# Add 300 nl of diluted enzyme to assay (middle) well.
# Incubate at 37° C. for 35 minutes.
# Take RFU readings using Molecular Devices F-max plate reader. F-max settings: Filter pair 390/460; Int.20 ms; speed 10.
# [3] = target: rhodamine-streptavidin (Streptomyces avidinii, UniProt P22629); test: FRET binding inhibition, fluorescein-biotin / rhodamine-streptavidin, read at 600 nm; conditions: fluorescein-biotin 50 μM, rhodamine-streptavidin 25 μM, varying biotin
# Chain of rhodamine-streptavidin (P22629 25-183): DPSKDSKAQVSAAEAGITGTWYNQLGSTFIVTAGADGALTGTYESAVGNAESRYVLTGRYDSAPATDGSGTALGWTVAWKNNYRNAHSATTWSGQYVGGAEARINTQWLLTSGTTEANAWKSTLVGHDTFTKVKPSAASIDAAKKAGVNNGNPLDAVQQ
# Description: In another series of studies binding assays were performed using fluorescence resonance energy transfer. The procedure employed is as follows. The channel was rinsed and filled with 25 μl of rhodamine labeled streptavidin and 100 nl of fluorescein labeled biotin dispensed in the sample port. The concentration of the antigen varied from 0 to 100 μM by 2-fold dilutions. The signal detection system was as described, except that emission was detected at 600±20 nm. The energy transfer increased corresponding to the increase in antigen. The study was repeated varying the amount of labeled streptavidin while keeping the biotin-fluorescein at 25 μM. The background FRET signal contributed by rhodamine-streptavidin alone was substantially negligible, when the concentration of rhodamine-streptavidin was greater than about 2 μM. The following tables provide the results for the two studies.
# In the next study, the effect of inhibitor on the observed signal was investigated. Fluorescein-biotin was maintained at 50 μM and rhodamine-streptavidin at 25 μM. the signal was read at 600±20 nm at varying concentrations of biotin as a binding inhibitor, with 100 nl of the binding inhibitor being added to the sample port.
# [4] = target: T1, rhodamine-labeled streptavidin (Streptomyces avidinii, UniProt P22629); test: inhibition of antigen-receptor binding, fluorescein-biotin / rhodamine-labeled streptavidin, read at 520 nm
# T1 construct: purchased Molecular Probe
# T1 sequence (P22629 25-183): as above
# Description: In the next study, the channel was filled with varying concentrations of biotin in the range of 0 to 5 μM and 100 nl of rhodamine-labeled streptavidin (625 nM) followed by 100 nl of 1.0 μM fluorescein-biotin added to the sample port. After incubating for 60 min., the signal was detected at 520±20 nm. The results are reported as fraction inhibition. The following tables provide the results.
# Using the above reagents and protocol, an inhibition assay was performed. The protocol was to fill the channel with 0, 30, 60, 180, 240, 500, 600, 1000, 5000 […] of biotin, respectively, followed by dispensing 100 nl of rhodamine labeled receptor into the sample port. After dispensing 100 nl of 1.0 μM fluorescein labeled antigen into the sample port, the reaction mixture was incubated for 60 minutes. The fluorescence was recorded by exciting at 480±20 nm and reading the emission at 520 nm±20 nm As the inhibitor concentration increased, the fluorescence intensity increased, indicating an increased inhibition. The increase in the fluorescent signal as a function of inhibitor concentration was converted to the percentage of inhibition.
# [5] = tested on: alkaline phosphatase; test: competitive inhibition assay, alkaline phosphatase with AutoPhos substrate; assay type: biochemical
# Description: The next study evaluated the system using a competitive inhibition assay, 4-Nitrophenyl phosphate (PNPP) (Sigma Chemical Co., St. Louis, Mo.) was used as a non-fluorescent substrate for alkaline phosphatase (20 femtomoles) competing with the AutoPhos substrate. The channel was rinsed with AutoPhos buffer and filled with […] AutoPhos substrate. Into the sample port was introduced 100 nl of PNPP at concentrations varying from 0 to 10 mM and the fluorescent signal was determined at different reaction time points.
# The channel was rinsed with AutoPhos buffer and then filled with about 10 μl of 1 mM AutoPhos substrate. 50 nl of alkaline phosphatase was then dispensed into the sample port. The amount of enzyme dispensed into the sample port increased from 31.25 attomole to 62.5 femtomoles by a factor of 2. Enzyme solutions of different concentrations were prepared in individual wells of a 96-well microtitre plate. Fluorescence was excited at 480 nm±20 nm and emission collected at 520±20 nm. The signals were recorded at different time points, 0, 5, 10, 15, up to 35 minutes.
# The next assay was a competitive inhibition assay using the following protocol: 4-Nitrophenyl phosphate (PNPP) was used as a non-fluorescent substrate for competing for alkaline phosphatase with AutoPhos substrate. After rinsing the channels with AutoPhos buffer, the channel was filled with 1 mM AutoPhos substrate. 100 nl of PNPP was dispensed at different concentrations ranging form 0 to 60 mM. The fluorescent signal was measured at different reaction time points. The fluorescent signal as a function of different inhibitor concentrations is tabulated as following.
# [6] = tested on: alkaline phosphatase; test: alkaline phosphatase inhibition study on capillary electrophoresis card, FDP substrate; assay type: biochemical; conditions: 1.3 mU/ml alkaline phosphatase, 3.33 μM FDP, increasing PNPP
# Description: The experimental procedure was as follows: the assay well is covered by tape. 5 μl of buffer was added to the reservoirs. 500 nl of the fluorescein or assay mixture was pipetted into the assay well. For the alkaline phosphatase assay, enzyme and substrate with or without inhibitor was mixed in a tube and then 500 nl of the assay mixture was pipetted into the assay well. The detection was performed at 7 mm distance from the injector. The particular conditions for each determination are set forth with the figure.
# FIG. 17 illustrates the alkaline phosphatase activity for the different incubation times. As shown in the electropherograms, two product peaks (the first peak is fluorescein mono phosphate and the 2nd peak is fluorescein) are well separated from each other. Additionally, the use of longer incubation time results in more conversion of FDP (fluorescein di-phosphate as a substrate) to the FMP (fluorescein mono-phosphate) and finally to fluorescein. FIG. 18 depicts a linear calibration curve for the alkaline phosphatase using the card. For the inhibition study, PNPP which is a non-fluorescent substrate for the alkaline phosphatase and competes with FDP which is a fluorescent substrate for the enzyme, is added to the assay mixture at a number of different concentrations.
# [7] = read-out: Fraction of Inhibition
structure (smiles),measurement,setting,value
Cc1ncc(COP(=O)(O)O)c(C=O)c1O [pyridoxal phosphate],fluorescence development in port,[1]; 30 nl of 25 μM inhibitor,only moderately inhibited
same,fluorescence development in port,"[1]; 30 nl of 250 μM inhibitor, at 30 mins",still very faint
Cc1nc2c([nH]1)c(=O)n(C)c(=O)n2Cc1ccco1 [furafylline],"inhibition at 35 min, 0.133 µM",[2],2%
same,"inhibition at 35 min, 0.665 µM",[2],31%
same,"inhibition at 35 min, 1.33 µM",[2],64%
same,"inhibition at 35 min, 6.65 µM",[2],72%
same,"inhibition at 35 min, 13.3 µM",[2],75%
same,"inhibition at 35 min, 66.5 µM",[2],77%
same,"inhibition at 35 min, 133 µM",[2],78%
"O=C(O)CCCC[C@@H]1SC[C@@H]2NC(=O)N[C@@H]21 [biotin, D(+)-Biotin]",energy transfer (FRET signal at 600 nm),[3],decreased with increase of binding inhibitor
same,inhibition at 0.03 µM,[4]; read-out: % of Inhibition,3.85%
same,inhibition at 0.06 µM,[4]; read-out: % of Inhibition,3.1%
same,inhibition at 0.18 µM,[4]; read-out: % of Inhibition,5%
same,inhibition at 0.24 µM,[4]; read-out: % of Inhibition,5.14%
same,inhibition at 0.5 µM,[4]; read-out: % of Inhibition,22.4%
same,inhibition at 0.6 µM,[4]; read-out: % of Inhibition,36.6%
same,inhibition at 1 µM,[4]; read-out: % of Inhibition,95%
same,inhibition at 5 µM,[4]; read-out: % of Inhibition,100%
same,inhibition at 0.03 µM,[4]; [7],3.85%
same,inhibition at 0.06 µM,[4]; [7],3.1%
same,inhibition at 0.18 µM,[4]; [7],5%
same,inhibition at 0.24 µM,[4]; [7],5.14%
same,inhibition at 0.5 µM,[4]; [7],22.4%
same,inhibition at 0.6 µM,[4]; [7],36.6%
same,inhibition at 1 µM,[4]; [7],95%
same,inhibition at 5 µM,[4]; [7],100%
"O=[N+]([O-])c1ccc(OP(=O)(O)O)cc1 [PNPP, 4-Nitrophenyl phosphate]",Fluorescent Signal,[5]; Inhibitor conc. 0.001 mM,4.5 ×103
same,Fluorescent Signal,[5]; Inhibitor conc. 0.0025 mM,4.0 ×103
same,Fluorescent Signal,[5]; Inhibitor conc. 0.005 mM,4.0 ×103
same,Fluorescent Signal,[5]; Inhibitor conc. 0.01 mM,3.5 ×103
same,Fluorescent Signal,[5]; Inhibitor conc. 0.02 mM,2.6 ×103
same,Fluorescent Signal,[5]; Inhibitor conc. 0.3125 mM,2.0 ×103
same,Fluorescent Signal,[5]; Inhibitor conc. 0.625 mM,1.6 ×103
same,Fluorescent Signal,[5]; Inhibitor conc. 1.25 mM,1.6 ×103
same,Fluorescent Signal,[5]; Inhibitor conc. 5 mM,1.6 ×103
same,Fluorescent Signal,[5]; Inhibitor conc. 10 mM,1.5 ×103
same,Fluorescence Signal,[5]; [Inhibitor] 0.001 mM,4527 RFU
same,Fluorescence Signal,[5]; [Inhibitor] 0.0025 mM,4000 RFU
same,Fluorescence Signal,[5]; [Inhibitor] 0.005 mM,4000 RFU
same,Fluorescence Signal,[5]; [Inhibitor] 0.01 mM,3500 RFU
same,Fluorescence Signal,[5]; [Inhibitor] 0.02 mM,2600 RFU
same,Fluorescence Signal,[5]; [Inhibitor] 0.3125 mM,2000 RFU
same,Fluorescence Signal,[5]; [Inhibitor] 0.625 mM,1600 RFU
same,Fluorescence Signal,[5]; [Inhibitor] 1.25 mM,1600 RFU
same,Fluorescence Signal,[5]; [Inhibitor] 5 mM,1600 RFU
same,Fluorescence Signal,[5]; [Inhibitor] 10 mM,1500 RFU
same,Fluorescence Signal,[5]; [Inhibitor] 60 mM,750 RFU
same,effect on FDP alkaline phosphatase activity,[6],reduction of FDP alkaline phosphates activity
